The experiment addresses T1, gastrin receptor (Rattus norvegicus, UniProt P30553).
T1 construct: The stomach was excised and flushed with ca. 1 ml of unbuffered physiological saline solution; from tissue; host or cells: isolated whole stomach of immature rats (ca. 21 days old)
T1 sequence (P30553 1-452): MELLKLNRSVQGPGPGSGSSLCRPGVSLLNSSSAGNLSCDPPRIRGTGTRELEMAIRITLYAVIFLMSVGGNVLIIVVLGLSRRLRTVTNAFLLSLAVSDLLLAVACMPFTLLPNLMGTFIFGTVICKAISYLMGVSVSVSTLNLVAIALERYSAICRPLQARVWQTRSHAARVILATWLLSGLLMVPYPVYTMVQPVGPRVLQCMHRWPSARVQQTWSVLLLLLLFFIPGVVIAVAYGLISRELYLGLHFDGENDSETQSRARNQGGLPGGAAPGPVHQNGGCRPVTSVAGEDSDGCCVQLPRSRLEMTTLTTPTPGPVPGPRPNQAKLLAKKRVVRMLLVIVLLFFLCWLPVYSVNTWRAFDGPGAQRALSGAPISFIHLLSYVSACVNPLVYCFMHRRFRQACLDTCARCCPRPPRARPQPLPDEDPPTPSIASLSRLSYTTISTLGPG
Description: gastrin antagonist activity in immature rat stomach assay (pentagastrin dose-response, acid secretion). As to conditions: isolated immature rat stomach, cumulative pentagastrin dose-response curves; for Kb: read-out: Gastrin pKb (converted). In short, it runs like this: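 Isolated, lumen-perfused stomach from immature rats (33-50 g, ca. 21 days) in a 37° organ bath with 3×10^−8 M 5-methylfurmethide, gassed 95% O2/5% CO2. Compound added serosally after 120 min stabilisation; cumulative pentagastrin dose-response curves begun 60 min later, acid secretion followed by perfusate pH.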

The values below come from patent publication US6479531B1, “Gastrin and cholecystokinin receptor ligands” (James Black Foundation Limited, priority 1998, dated 2002).

With `COc1cc(OC)c(-c2nc(C(=O)Nc3cccc(C(=O)O)c3)c(CCC34CC5CC(CC(C5)C3)C4)[nH]2)c(OC)c1` [Example 160, 3-{[5-(2-Adamantan-1-yl-ethyl)-2-(2,4,6-trimethoxy-phenyl)-1H-imidazole-4-carbonyl]-amino}-benzoic Acid], the Kb was 912 nM.

For `O=C(Nc1cccc(S(=O)(=O)O)c1)c1nc(C2CCCCC2)[nH]c1CCC12CC3CC(CC(C3)C1)C2` [Example 268, 3-{[5-(2-Adamantan-1-yl-ethyl)-2-cyclohexyl-1H-imidazole-4-carbonyl]-amino}-benzenesulfonic Acid], the Kb is 224 nM.

Take “(±)-5-{[5-(2-Adamantan-1-yl-ethyl)-2-[1-methyl-piperidin-2-yl])-1H-imidazole-4-carbonyl]-amino}-2-methyl-benzoic Acid [Example 141]”: the “Gastrin pKb” value is on record as 7.21.

Take `Cc1c(NC(=O)c2nc(C3CCCCC3)[nH]c2COC23CC4CC(CC(C4)C2)C3)cccc1C(=O)O` [Example 218, 3-{[5-(Adamantan-1-yloxymethyl)-2-cyclohexyl-1H-imidazole-4-carbonyl]-amino}-2-methyl-benzoic Acid]: the Kb is 148 nM.

Consider `O=C(NO)c1cccc(NC(=O)c2nc(C3CCCCC3)[nH]c2COC23CC4CC(CC(C4)C2)C3)c1` [Example 286, 5-(Adamantan-1-yloxymethyl)-2-cyclohexyl-1H-imidazole-4-carboxylic Acid (3-hydroxycarbamoyl-phenyl)-amide], for which the Kb was 26.9 nM.

For `O=C(O)c1cccc(NC(=O)c2nc([C@@H]3CC4CC[C@@H]3C4)[nH]c2COC23CC4CC(CC(C4)C2)C3)c1` [Example 292, endo-3-{[5-(Adamantan-1-yloxymethyl)-2-((1R,2R)-bicyclo[2.2.1]hept-2-yl)-1H-imidazole-4-carbonyl]-amino}-benzoic Acid], the “Gastrin pKb” value was found to be 8.57.

On to “5-{[5-(2-Adamantan-1-yl-ethyl)-2-[1-(2-methyl-propyl)-piperidin-2-yl])-1H-imidazole-4-carbonyl]-amino}-2-methyl-benzoic Acid [Example 142]”, for which the “Gastrin pKb” value is 6.75.

In the case of `CC(=O)NC(C(=O)O)c1cccc(NC(=O)c2nc(C3CCCCC3)[nH]c2CCC23CC4CC(CC(C4)C2)C3)c1` (racemic) [Example 264, (±)-Acetylamino-(3-{[5-(2-adamantan-1-yl-ethyl)-2-cyclohexyl-1H-imidazole-4-carbonyl]-amino}-phenyl)-acetic Acid], the Kb is 871 nM.

Consider `O=C(O)c1cccc(OC(=O)c2nc(C3CCCCC3)[nH]c2CCC23CC4CC(CC(C4)C2)C3)c1` [Example 282, 5-(2-Adamantan-1-yl-ethyl)-2-cyclohexyl-1H-imidazole-4-carboxylic Acid 3-carboxy-phenyl Ester], for which the Kb was 708 nM.

For the molecule `CC(=O)NC(Cc1cccc(NC(=O)c2nc(C3CCCCC3)[nH]c2CCC23CC4CC(CC(C4)C2)C3)c1)C(=O)O` (racemic) [Example 265, (±)-2-Acetylamino-3-(3-{[5-(2-adamantan-1-yl-ethyl)-2-cyclohexyl-1H-imidazole-4-carbonyl]-amino}-phenyl)-propionic Acid], the Kb is 148 nM.

As to `Cc1ccc(NC(=O)c2nc(C3C4CCC3CC4)[nH]c2COC23CC4CC(CC(C4)C2)C3)cc1C(=O)O` (stereo not drawn) [Example 293, 5-{[5-(Adamantan-1-yloxymethyl)-2-bicyclo[2.2.1]hept-7-yl-1H-imidazole-4-carbonyl]-amino}-2-methyl-benzoic Acid], the Kb was 3.02 nM.

Turning to `Cn1c(C2CCCCC2)nc(C(=O)Nc2cccc(C(=O)O)c2)c1CCC12CC3CC(CC(C3)C1)C2` [Example 214, 3-{[5-(2-Adamantan-1-yl-ethyl)-2-cyclohexyl-1-methyl-1H-imidazole-4-carbonyl]-amino}-benzoic Acid], the Kb is 10.2 nM.
